Values of other authors as cited in publication PMC9395488, “First-in-human study of IM156, a novel potent biguanide oxidative phosphorylation (OXPHOS) inhibitor, in patients with advanced solid tumors” (Investigational New Drugs, 2022).

Columns and labels:
[1] = test system: patients (pts) with advanced solid tumors; details: cited from earlier work
A549 = test system: A549; design: method as in ImmunoMet, 2018; details: in A549; ref ImmunoMet, 2018; read-out: OXPHOS inhibition IC50; cited from earlier work
OXPHOS = test system: OXPHOS; design: method as in ImmunoMet, 2018; details: at the same concentration; ref ImmunoMet, 2018; cited from earlier work
glioblastoma (GSC11) = test system: glioblastoma (GSC11); design: method as in ImmunoMet, 2018; details: glioblastoma animal model, control group 47 days; ref ImmunoMet, 2018; cited from earlier work
Glioblastoma cells = test system: Glioblastoma cells; design: method as in ImmunoMet, 2018; details: 15 µM IM156, 500 µM temozolomide, ref ImmunoMet, 2018; cited from earlier work

Question: With `Cc1nc(-c2nc(-c3ccc(OC(F)(F)F)cc3)no2)nn1Cc1cccc(N2CCC(S(C)(=O)=O)CC2)c1` [IACS-010759] as the compound, how does the “patients with PR, percent” value [1] read?
Answer: 5%

Question: What about the “patients with SD” value [1] of the same compound?
Answer: 8 patients

Question: And the “patients with SD, percent” value [1]?
Answer: 38%

Question: And the “Grade ≥ 3 AEs, percent of patients” value ([1]; human, in vivo)?
Answer: 43%

Question: What about the “diarrhea of any grade, percent of patients” value ([1]; human, in vivo) of the same compound?
Answer: 10%

Question: And the “elevations of blood lactate, percent of patients” value ([1]; human, in vivo)?
Answer: 71%

Question: And the “nausea of any grade, percent of patients” value ([1]; human, in vivo)?
Answer: 67%

Question: And the “vomiting of any grade, percent of patients” value ([1]; human, in vivo)?
Answer: 29%

Question: What about the “patients with PR” value ([1]; patient with prostate cancer) of the same compound?
Answer: one

Question: For `CN(C)C(=N)N=C(N)N` [metformin, reference compound], which IC50 (A549) is on record?
Answer: ~500 µM

Question: With `[H]/N=C(/N)N/C(=N/[H])NCCc1ccccc1` [phenformin, reference compound] as the compound, how does the “time until OXPHOS inhibition starts to show” value (OXPHOS) read?
Answer: ≥ 6 h

Question: Which median survival time (glioblastoma (GSC11)) does the source give for `Cn1nnc2c(C(N)=O)ncn2c1=O` [temozolomide, reference compound] here?
Answer: 58 days

Question: What about the neurosphere size (Glioblastoma cells) of the same compound?
Answer: decreased
